Source: article PMC3639963, “A New Class of Small Molecule Inhibitor of BMP Signaling” (PLoS ONE, 2013)

Legend:
Experiment in all cases: Nanosyn kinase profiling
Type in all cases: biochemical
Conditions in all cases: read-out: Percentage inhibition; for inhibition at 0.1 µM: 0.1 µM inhibitor; for inhibition at 1 µM: 1 µM inhibitor
[1] = biological target: T1, FGR (Homo sapiens, UniProt P09769)
T1 construct: purchased Nanosyn (enzymatic panel); SGC in-house recombinant human kinases (DSF panel); Invitrogen (ALK1-6)
T1 sequence (P09769 whole entry): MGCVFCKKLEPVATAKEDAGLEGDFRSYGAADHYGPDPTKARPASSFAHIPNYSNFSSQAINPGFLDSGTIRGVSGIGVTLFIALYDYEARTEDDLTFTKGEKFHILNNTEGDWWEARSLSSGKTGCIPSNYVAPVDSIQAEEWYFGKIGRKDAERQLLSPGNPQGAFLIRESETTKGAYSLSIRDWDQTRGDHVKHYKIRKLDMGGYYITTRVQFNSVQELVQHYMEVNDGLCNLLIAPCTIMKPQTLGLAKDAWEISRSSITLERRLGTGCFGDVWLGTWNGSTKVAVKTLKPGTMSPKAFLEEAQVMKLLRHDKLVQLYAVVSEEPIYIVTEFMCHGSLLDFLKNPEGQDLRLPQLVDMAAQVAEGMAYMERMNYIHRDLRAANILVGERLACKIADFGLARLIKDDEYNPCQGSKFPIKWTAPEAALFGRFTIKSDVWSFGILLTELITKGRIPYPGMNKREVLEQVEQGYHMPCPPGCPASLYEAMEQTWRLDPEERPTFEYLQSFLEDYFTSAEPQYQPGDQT
How it was run: (§1)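 Percent inhibition of each kinase was measured with the inhibitor at 0.1 µM and at 1 µM, as part of a 200-kinase human selectivity panel.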

[2] = biological target: T2, NEK2 (Homo sapiens, UniProt P51955)
T2 construct: purchased Nanosyn (enzymatic panel); SGC in-house recombinant human kinases (DSF panel); Invitrogen (ALK1-6)
T2 sequence (P51955 1-445): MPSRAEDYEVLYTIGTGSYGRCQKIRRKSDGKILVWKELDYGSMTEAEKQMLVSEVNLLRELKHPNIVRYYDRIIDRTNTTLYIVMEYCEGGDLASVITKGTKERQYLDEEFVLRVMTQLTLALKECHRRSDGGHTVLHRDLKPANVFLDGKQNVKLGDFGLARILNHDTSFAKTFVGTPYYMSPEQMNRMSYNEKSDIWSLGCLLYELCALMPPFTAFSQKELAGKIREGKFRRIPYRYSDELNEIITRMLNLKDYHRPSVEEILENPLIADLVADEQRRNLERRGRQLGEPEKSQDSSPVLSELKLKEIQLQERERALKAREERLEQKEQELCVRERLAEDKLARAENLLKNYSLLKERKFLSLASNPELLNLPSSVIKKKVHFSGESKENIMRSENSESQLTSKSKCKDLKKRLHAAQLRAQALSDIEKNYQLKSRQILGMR
How it was run: as §1

[3] = biological target: T3, PKCη (Homo sapiens, UniProt P24723)
T3 construct: purchased Nanosyn (enzymatic panel); SGC in-house recombinant human kinases (DSF panel); Invitrogen (ALK1-6)
T3 sequence (P24723 whole entry): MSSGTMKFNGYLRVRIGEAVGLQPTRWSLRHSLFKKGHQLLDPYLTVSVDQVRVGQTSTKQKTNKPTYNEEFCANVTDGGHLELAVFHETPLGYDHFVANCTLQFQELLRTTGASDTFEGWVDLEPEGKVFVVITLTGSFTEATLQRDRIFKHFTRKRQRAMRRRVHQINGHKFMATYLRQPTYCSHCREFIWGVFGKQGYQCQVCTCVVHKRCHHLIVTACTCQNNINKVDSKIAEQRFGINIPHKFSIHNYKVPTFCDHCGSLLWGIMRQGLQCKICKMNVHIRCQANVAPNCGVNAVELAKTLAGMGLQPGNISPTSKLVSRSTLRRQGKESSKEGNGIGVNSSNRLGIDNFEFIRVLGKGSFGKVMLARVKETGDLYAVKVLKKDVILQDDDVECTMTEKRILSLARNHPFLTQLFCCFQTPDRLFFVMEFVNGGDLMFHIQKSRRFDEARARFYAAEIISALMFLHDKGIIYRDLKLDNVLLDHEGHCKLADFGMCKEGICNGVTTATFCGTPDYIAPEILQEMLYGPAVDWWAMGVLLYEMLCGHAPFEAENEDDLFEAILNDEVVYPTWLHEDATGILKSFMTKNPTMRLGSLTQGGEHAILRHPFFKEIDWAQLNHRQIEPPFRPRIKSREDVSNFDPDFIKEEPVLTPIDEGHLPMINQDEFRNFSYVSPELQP
How it was run: as §1

[4] = biological target: T4, PDGFRβ (Homo sapiens, UniProt P09619)
T4 construct: purchased Nanosyn (enzymatic panel); SGC in-house recombinant human kinases (DSF panel); Invitrogen (ALK1-6)
T4 sequence (P09619 33-1106): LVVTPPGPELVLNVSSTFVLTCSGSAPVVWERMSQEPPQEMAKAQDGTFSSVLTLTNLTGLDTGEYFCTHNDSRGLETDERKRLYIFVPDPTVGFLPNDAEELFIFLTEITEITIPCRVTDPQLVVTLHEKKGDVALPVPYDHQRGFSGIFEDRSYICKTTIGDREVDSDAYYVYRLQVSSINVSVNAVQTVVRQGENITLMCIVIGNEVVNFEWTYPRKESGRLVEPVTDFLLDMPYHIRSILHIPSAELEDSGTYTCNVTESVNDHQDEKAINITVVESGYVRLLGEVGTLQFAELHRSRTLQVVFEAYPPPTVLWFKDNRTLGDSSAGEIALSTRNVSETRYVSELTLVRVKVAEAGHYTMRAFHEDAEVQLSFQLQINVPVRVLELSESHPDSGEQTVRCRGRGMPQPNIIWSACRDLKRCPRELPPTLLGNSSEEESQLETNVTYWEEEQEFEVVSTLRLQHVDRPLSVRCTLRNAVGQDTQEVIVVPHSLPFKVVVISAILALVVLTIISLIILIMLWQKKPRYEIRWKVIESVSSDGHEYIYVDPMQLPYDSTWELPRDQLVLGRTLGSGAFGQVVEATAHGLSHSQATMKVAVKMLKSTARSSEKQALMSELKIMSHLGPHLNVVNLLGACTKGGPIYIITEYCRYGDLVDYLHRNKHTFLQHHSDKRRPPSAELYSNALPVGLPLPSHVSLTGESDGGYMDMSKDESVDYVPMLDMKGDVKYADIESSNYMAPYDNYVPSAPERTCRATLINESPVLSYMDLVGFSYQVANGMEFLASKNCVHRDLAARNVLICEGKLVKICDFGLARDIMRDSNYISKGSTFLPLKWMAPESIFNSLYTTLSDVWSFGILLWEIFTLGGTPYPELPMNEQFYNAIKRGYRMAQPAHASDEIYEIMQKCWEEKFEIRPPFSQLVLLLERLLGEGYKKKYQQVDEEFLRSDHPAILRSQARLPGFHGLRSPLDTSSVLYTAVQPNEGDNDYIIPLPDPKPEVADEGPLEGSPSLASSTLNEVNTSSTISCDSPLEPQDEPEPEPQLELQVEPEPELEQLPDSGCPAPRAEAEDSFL
How it was run: as §1

[5] = biological target: T5, RSK4 (Homo sapiens, UniProt Q9UK32)
T5 construct: purchased Nanosyn (enzymatic panel); SGC in-house recombinant human kinases (DSF panel); Invitrogen (ALK1-6)
T5 sequence (Q9UK32 whole entry): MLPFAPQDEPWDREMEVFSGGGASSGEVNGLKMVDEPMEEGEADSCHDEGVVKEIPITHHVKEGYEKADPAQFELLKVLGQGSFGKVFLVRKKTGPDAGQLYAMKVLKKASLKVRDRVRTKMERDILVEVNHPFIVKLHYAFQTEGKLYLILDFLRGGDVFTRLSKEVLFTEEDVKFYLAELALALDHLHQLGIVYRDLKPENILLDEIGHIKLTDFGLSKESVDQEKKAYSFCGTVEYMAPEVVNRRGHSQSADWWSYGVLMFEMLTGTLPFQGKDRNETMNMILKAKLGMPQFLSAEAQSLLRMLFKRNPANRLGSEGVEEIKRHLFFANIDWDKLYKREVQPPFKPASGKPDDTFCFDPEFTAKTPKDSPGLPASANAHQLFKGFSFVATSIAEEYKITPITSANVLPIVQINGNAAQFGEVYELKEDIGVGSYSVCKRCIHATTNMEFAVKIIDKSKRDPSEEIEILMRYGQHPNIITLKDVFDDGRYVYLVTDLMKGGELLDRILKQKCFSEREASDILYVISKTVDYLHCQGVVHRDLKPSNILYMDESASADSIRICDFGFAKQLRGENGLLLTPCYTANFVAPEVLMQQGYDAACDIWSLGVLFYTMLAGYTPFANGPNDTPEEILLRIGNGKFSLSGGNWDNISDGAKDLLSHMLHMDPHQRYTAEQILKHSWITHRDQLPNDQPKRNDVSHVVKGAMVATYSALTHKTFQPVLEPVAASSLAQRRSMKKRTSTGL
How it was run: as §1

[6] = biological target: T6, CK1γ3 (Homo sapiens, UniProt Q9Y6M4)
T6 construct: purchased Nanosyn (enzymatic panel); SGC in-house recombinant human kinases (DSF panel); Invitrogen (ALK1-6)
T6 sequence (Q9Y6M4 whole entry): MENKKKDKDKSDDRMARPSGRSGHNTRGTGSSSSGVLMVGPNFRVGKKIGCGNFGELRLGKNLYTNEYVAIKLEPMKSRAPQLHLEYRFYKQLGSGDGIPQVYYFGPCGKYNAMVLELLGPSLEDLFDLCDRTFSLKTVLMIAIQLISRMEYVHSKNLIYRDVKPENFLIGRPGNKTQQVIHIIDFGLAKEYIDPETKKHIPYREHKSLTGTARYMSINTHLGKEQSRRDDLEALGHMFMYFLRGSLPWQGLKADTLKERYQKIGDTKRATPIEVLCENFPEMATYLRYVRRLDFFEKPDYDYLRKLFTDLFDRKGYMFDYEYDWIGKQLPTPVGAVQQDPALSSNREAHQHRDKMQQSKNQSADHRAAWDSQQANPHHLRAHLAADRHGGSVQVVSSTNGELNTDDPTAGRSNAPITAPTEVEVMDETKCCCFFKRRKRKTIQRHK
How it was run: as §1

[7] = biological target: T7, EPHA2 (Homo sapiens, UniProt P29317)
T7 construct: purchased Nanosyn (enzymatic panel); SGC in-house recombinant human kinases (DSF panel); Invitrogen (ALK1-6)
How it was run: as §1

[8] = biological target: T8, BLK (Homo sapiens, UniProt P51451)
T8 construct: purchased Nanosyn (enzymatic panel); SGC in-house recombinant human kinases (DSF panel); Invitrogen (ALK1-6)
T8 sequence (P51451 whole entry): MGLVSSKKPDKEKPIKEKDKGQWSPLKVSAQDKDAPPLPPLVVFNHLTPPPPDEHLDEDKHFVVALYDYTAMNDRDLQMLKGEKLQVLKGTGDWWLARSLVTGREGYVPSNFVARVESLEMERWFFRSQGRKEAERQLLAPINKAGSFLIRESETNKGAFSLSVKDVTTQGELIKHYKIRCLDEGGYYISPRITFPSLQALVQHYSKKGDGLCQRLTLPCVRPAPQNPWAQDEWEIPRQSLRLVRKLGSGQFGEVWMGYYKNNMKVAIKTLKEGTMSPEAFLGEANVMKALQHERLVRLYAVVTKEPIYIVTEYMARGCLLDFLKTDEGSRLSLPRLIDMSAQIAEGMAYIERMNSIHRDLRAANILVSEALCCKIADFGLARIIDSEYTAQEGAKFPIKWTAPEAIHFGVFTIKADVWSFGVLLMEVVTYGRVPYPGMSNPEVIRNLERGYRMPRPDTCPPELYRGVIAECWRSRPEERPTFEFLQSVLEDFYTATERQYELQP
How it was run: as §1

[9] = biological target: T9, EPHB2 (Homo sapiens, UniProt P29323)
T9 construct: purchased Nanosyn (enzymatic panel); SGC in-house recombinant human kinases (DSF panel); Invitrogen (ALK1-6)
T9 sequence (P29323 19-1055): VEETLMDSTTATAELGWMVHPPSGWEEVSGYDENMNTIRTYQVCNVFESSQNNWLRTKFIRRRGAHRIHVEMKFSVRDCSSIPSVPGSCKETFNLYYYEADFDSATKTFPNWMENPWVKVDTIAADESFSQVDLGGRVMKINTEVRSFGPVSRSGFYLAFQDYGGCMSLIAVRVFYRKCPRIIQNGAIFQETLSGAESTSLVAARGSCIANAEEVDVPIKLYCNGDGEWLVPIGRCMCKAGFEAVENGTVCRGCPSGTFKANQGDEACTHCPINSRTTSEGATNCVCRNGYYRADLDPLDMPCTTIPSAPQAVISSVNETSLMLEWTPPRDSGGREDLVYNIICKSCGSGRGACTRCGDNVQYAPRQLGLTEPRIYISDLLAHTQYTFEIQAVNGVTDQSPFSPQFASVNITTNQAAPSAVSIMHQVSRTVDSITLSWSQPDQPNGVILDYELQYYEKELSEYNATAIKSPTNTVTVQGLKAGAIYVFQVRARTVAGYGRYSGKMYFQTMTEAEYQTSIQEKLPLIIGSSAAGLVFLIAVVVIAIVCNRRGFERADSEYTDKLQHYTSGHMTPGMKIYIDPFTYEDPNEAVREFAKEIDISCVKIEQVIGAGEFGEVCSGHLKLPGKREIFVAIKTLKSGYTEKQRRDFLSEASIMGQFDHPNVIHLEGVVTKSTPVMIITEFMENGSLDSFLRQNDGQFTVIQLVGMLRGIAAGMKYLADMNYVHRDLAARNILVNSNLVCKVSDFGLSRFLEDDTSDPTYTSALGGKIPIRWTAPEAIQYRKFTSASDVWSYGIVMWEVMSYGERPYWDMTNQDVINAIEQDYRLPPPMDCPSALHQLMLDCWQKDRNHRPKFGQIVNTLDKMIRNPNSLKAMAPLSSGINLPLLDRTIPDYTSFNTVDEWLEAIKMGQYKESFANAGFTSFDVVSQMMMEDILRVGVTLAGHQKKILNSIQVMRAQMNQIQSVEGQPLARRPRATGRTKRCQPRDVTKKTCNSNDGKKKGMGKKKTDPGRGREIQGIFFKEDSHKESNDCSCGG
How it was run: as §1

[10] = biological target: T10, PKCβ2 (Homo sapiens, UniProt P05771)
T10 construct: purchased Nanosyn (enzymatic panel); SGC in-house recombinant human kinases (DSF panel); Invitrogen (ALK1-6)
T10 sequence (P05771 1-673 isoform P05771-2): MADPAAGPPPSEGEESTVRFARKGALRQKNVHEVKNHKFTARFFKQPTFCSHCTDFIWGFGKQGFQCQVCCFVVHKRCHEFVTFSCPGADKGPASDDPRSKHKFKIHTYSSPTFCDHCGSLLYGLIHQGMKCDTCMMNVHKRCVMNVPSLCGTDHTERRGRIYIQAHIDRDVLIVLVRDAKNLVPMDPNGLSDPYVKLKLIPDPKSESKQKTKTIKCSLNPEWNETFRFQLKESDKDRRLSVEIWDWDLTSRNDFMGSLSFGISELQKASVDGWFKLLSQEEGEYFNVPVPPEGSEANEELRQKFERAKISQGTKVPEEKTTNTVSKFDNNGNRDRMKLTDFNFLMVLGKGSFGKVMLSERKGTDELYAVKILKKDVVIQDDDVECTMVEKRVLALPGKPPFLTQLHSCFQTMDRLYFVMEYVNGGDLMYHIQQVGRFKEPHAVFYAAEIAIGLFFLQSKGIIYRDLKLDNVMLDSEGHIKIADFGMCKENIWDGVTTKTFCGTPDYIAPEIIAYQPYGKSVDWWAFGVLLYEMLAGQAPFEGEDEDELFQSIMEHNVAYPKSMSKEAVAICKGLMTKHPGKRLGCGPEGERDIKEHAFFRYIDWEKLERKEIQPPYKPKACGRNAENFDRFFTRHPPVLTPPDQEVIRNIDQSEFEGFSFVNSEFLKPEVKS
How it was run: as §1

[11] = biological target: T11, NEK6 (Homo sapiens, UniProt Q9HC98)
T11 construct: purchased Nanosyn (enzymatic panel); SGC in-house recombinant human kinases (DSF panel); Invitrogen (ALK1-6)
T11 sequence (Q9HC98 whole entry): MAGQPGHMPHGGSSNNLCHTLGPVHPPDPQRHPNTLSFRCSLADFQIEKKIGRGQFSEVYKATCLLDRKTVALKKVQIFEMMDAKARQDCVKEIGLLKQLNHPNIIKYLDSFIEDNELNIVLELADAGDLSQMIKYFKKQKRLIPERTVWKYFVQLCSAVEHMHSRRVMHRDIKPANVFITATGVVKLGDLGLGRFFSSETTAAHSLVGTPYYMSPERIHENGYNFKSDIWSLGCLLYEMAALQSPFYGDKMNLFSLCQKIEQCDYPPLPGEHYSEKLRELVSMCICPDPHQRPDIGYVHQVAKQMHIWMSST
How it was run: as §1

[12] = biological target: T12, RET (Homo sapiens, UniProt P07949)
T12 construct: purchased Nanosyn (enzymatic panel); SGC in-house recombinant human kinases (DSF panel); Invitrogen (ALK1-6)
How it was run: as §1

Compound `COc1cc(-c2cc(-c3cccc(O)c3)cnc2N)cc(OC)c1OC` [K02288, 3-[6-amino-5-(3,4,5-trimethoxy-phenyl)-pyridin-3-yl]-phenol] has an inhibition at 0.1 µM [1] of 6.7%, an inhibition at 1 µM [1] of 37% and an inhibition at 0.1 µM [2] of -2%. For the same compound, the inhibition at 1 µM [2] was -2%, the inhibition at 0.1 µM [3] was -2% and the inhibition at 1 µM [3] was -4%. The inhibition at 0.1 µM [4] was 7.7%, the inhibition at 1 µM [4] was 43% and the inhibition at 0.1 µM [5] was 0.1%. For the same compound, the inhibition at 1 µM [5] was 1%, the inhibition at 0.1 µM [6] was 2.7% and the inhibition at 1 µM [6] was 19%. It also gave an inhibition at 0.1 µM [7] of -2%, an inhibition at 1 µM [7] of 3% and an inhibition at 0.1 µM [8] of 3.2%. It also gave an inhibition at 1 µM [8] of 27%, an inhibition at 0.1 µM [9] of 0% and an inhibition at 1 µM [9] of 21%. The inhibition at 0.1 µM [10] was 0%, the inhibition at 1 µM [10] was -1% and the inhibition at 0.1 µM [11] was -2%. The inhibition at 1 µM [11] was -1%, the inhibition at 0.1 µM [12] was 2.1% and the inhibition at 1 µM [12] was 3.9%.
`c1ccc2c(-c3cnn4cc(-c5ccc(N6CCNCC6)cc5)cnc34)ccnc2c1` [LDN-193189] gave an inhibition at 0.1 µM [1] of 13%, an inhibition at 1 µM [1] of 53% and an inhibition at 0.1 µM [2] of 2.8%. It also gave an inhibition at 1 µM [2] of 1.2%, an inhibition at 0.1 µM [3] of 2.2% and an inhibition at 1 µM [3] of -2%. For the same compound, the inhibition at 0.1 µM [4] was 39%, the inhibition at 1 µM [4] was 75% and the inhibition at 0.1 µM [5] was 0.8%. It also gave an inhibition at 1 µM [5] of 3.8%, an inhibition at 0.1 µM [6] of 2.3% and an inhibition at 1 µM [6] of 5.5%. The inhibition at 0.1 µM [7] was -2%, the inhibition at 1 µM [7] was -3% and the inhibition at 0.1 µM [8] was 3.9%. The inhibition at 1 µM [8] was 24%, the inhibition at 0.1 µM [9] was 8.4% and the inhibition at 1 µM [9] was 24%. The inhibition at 0.1 µM [10] was 1%, the inhibition at 1 µM [10] was 1.8% and the inhibition at 0.1 µM [11] was 2.3%. For the same compound, the inhibition at 1 µM [11] was -1%, the inhibition at 0.1 µM [12] was 4% and the inhibition at 1 µM [12] was 16%.
